Format in all cases: in vivo
Test [1] relates to Plutella xylostella (Diamond Back Moth). The test is described as follows: Activity against Plutella xylostella (diamond back moth), artificial diet. As to conditions: 192 h, read-out: effect in at least one of the two categories (mortality or growth inhibition); for percent effect (mortality or growth inhibition) at 200 ppm: application rate 200 ppm, eggs, 8 days after infestation. On the procedure: Example B3: Activity Against Plutella xylostella (Diamond Back Moth)
24-well microtiter plates with artificial diet were treated with aqueous test solutions prepared from 10,000 ppm DMSO stock solutions by pipetting. After drying, Plutella eggs were pipetted through a plastic stencil onto a gel blotting paper and the plate was closed with it. The samples were assessed for mortality and growth inhibition in comparison to untreated samples 8 days after infestation.

Test [2] deals with Diabrotica balteata (Corn Root Worm). The test is described as follows: Activity against Diabrotica balteata (corn root worm), maize sprouts sprayed. To be noted: 96 h, read-out: effect in at least one of the two categories (mortality or growth inhibition); for percent effect (mortality or growth inhibition) at 200 ppm: application rate 200 ppm, L2 larvae, 4 days after infestation. On the procedure: Example B1: Activity Against Diabrotica balteata (Corn Root Worm)
Maize sprouts placed onto an agar layer in 24-well microtiter plates were treated with aqueous test solutions prepared from 10,000 ppm DMSO stock solutions by spraying. After drying, the plates were infested with L2 larvae (6 to 10 per well). The samples were assessed for mortality and growth inhibition in comparison to untreated samples 4 days after infestation.

Test [3] concerns Spodoptera littoralis (Egyptian Cotton Leaf Worm). The test is described as follows: Activity against Spodoptera littoralis (Egyptian cotton leaf worm), cotton leaf discs. To be noted: foliar, 72 h, read-out: control (mortality, anti-feedant effect or growth inhibition). As for the experimental part: Example B5: Activity Against Spodoptera littoralis (Egyptian Cotton Leaf Worm)
Cotton leaf discs were placed onto agar in 24-well microtiter plates and sprayed with aqueous test solutions prepared from 10,000 ppm DMSO stock solutions. After drying the leaf discs were infested with five L1 larvae. The samples were assessed for mortality, anti-feeding effect, and growth inhibition in comparison to untreated samples 3 days after infestation. Control of Spodoptera littoralis by a test sample is given when at least one of the categories mortality, anti-feedant effect, and growth inhibition is higher than the untreated sample.

Where [4] appears, read: application rate 200 ppm, L1 larvae, 3 days after infestation.

Like-named read-outs stand apart in the source and are kept apart here.

On to `CCSc1cc(C(C)(C)C#N)cnc1-c1ncc2c(OCC(F)(F)C(F)(F)F)cccn12` [Compound P46, 2-[5-ethylsulfanyl-6-[8-(2,2,3,3,3-penta-fluoropropoxy)imidazo [1,5-a]pyridin-3-yl]-3-pyridyl]-2-methyl-propanenitrile], for which, in test [1], the percent effect (mortality or growth inhibition) at 200 ppm is at least 80%.
With `CCS(=N)(=O)c1cc(OC(C)(C)C#N)cnc1-c1ncc2c(OCC(F)(F)C(F)(F)F)cccn12` (centres unmarked) [Compound P49, 2-[[5-(ethylsulfonimidoyl)-6-[8-(2,2,3,3,3-penta-fluoropropoxy)imidazo [1,5-a]pyridin-3-yl]-3-pyridyl]oxy]-2-methyl-propanenitrile], the percent effect (mortality or growth inhibition) at 200 ppm in test [2] and in test [1] was at least 80% in each case.
As for `CCSc1cc(N(C)C(C)=O)cnc1-c1ncc2c(OCC(F)(F)C(F)(F)F)cccn12` [Compound P41, N-[5-ethylsulfanyl-6-[8-(2,2,3,3,3-penta-fluoropropoxy)imidazo [1,5-a]pyridin-3-yl]-3-pyridyl]-N-methyl-acetamide], the percent effect (mortality or growth inhibition) at 200 ppm in test [1] was at least 80%.
Regarding `CCSc1cc(C2(C#N)CC2)cnc1-c1ncc2c(OCC(F)(F)C(F)(F)F)cccn12` [Compound P53, 1-[5-ethylsulfanyl-6-[8-(2,2,3,3,3-penta-fluoropropxoy)imidazo [1,5-a]pyridin-3-yl]-3-pyridyl]cyclopropane-carbonitrile], the percent effect (mortality or growth inhibition) at 200 ppm in test [2] and in test [1] was at least 80% each time.
Regarding `CCSc1cc(Oc2ccccn2)cnc1-c1ncc2c(OCC(F)(F)C(F)(F)F)nccn12` [Compound P20, 3-[3-ethylsulfanyl-5-(2-pyridyloxy)-2-pyridyl]-8-(2,2,3,3,3-penta-fluoropropoxy)imidazo [1,5-a]pyrazine], the percent effect (mortality or growth inhibition) at 200 ppm in test [2] and in test [1] was at least 80% in each case. The percent control (mortality, anti-feedant effect or growth inhibition) at 200 ppm in test [3] (setting [4]) is at least 80%.
Take `CCS(=O)(=O)c1ccc(Cl)nc1-c1ncc2c(OCC(F)(F)C(F)(F)F)cccn12` [Compound P30, 3-(6-chloro-3-ethylsulfonyl-2-pyridyl)-8-(2,2,3,3,3-pentafluoropropoxy)imi-dazo[1,5-a]pyridine]: in test [1], the percent control (mortality or growth inhibition) at 200 ppm was at least 80%. Moreover, the percent control (mortality, anti-feedant effect or growth inhibition) at 200 ppm in test [3] was at least 80%.
For `CCSc1cc(C2CC2)cnc1-c1ncc2c(OCC(F)(F)C(F)(F)F)nccn12` [Compound P22, 3-(5-cyclopropyl-3-ethylsulfanyl-2-pyridyl)-8-(2,2,3,3,3-penta-fluoropropoxy)imidazo [1,5-a]pyrazine], the percent effect (mortality or growth inhibition) at 200 ppm in test [2] and in test [1] was at least 80% throughout. For the same compound, the percent control (mortality, anti-feedant effect or growth inhibition) at 200 ppm in test [3] (setting [4]) is at least 80%.
Consider `CCS(=O)(=O)c1ccc(NC(=O)NC)nc1-c1ncc2c(OCC(F)(F)C(F)(F)F)nccn12` [Compound P9, 1-[5-ethylsulfonyl-6-[8-(2,2,3,3,3-penta-fluoropropoxy)imidazo [1,5-a]pyrazin-3-yl]-2-pyridyl]-3-methyl-urea], for which the percent effect (mortality or growth inhibition) at 200 ppm in test [2] and in test [1] was at least 80% each time.
With `CCSc1cc(C2CC2)cnc1-c1ncc2c(OCC(F)(F)C(F)(F)F)cccn12` [Compound P42, 3-(5-cyclopropyl-3-ethylsulfanyl-2-pyridyl)-8-(2,2,3,3,3-penta-fluoropropoxy)imidazo [1,5-a]pyridine], the percent effect (mortality or growth inhibition) at 200 ppm in test [2] and in test [1] was at least 80% in each case.
For the compound `CCS(=O)(=O)c1cc(Br)cnc1-c1ncc2c(OCC(F)(F)C(F)(F)F)cccn12` [Compound P43, 3-(5-bromo-3-ethylsulfonyl-2-pyridyl)-8-(2,2,3,3,3-pentafluoropropoxy)imi-dazo[1,5-a]pyridine], the percent control (mortality or growth inhibition) at 200 ppm in test [2] and in test [1] was at least 80% in each case.

Values taken from patent US20220061324A1, “PESTICIDALLY ACTIVE HETEROCYCLIC DERIVATIVES WITH SULFUR CONTAINING SUBSTITUENTS” (SYNGENTA CROP PROTECTION AG, priority 2018, published 2022).
